{"source": "patent US20220152226A1", "about": "“INTRACELLULAR DELIVERY AND MITOCHONDRIAL TARGETING BY FLUORINATION” (The Texas A&M University System, priority 2019, published 2022)", "key": {"[1]": {"test_system": "isolated mitochondria (HeLa cells)", "experiment": "Competitive binding assay on isolated mitochondria (Rh123)", "set-up": "species or system human", "conditions": "pre-incubation 37° C. 1 h, then Rh123 1 h", "description": "(§1) Mitochondria Isolation and Binding Affinity Study. The intracellular mitochondria were isolated by the commercial Mitochondria Isolation Kit for Cultured Cells (Thermo Fisher Scientific). Briefly, 2×10^7 HeLa cells were collected by trypsinization and centrifugation (850 g for 2 min). Then, the cells were lysed and the mitochondria were separated from other cell fragments by several washing and centrifugation steps as the manufacture's manual (Option A). The isolated mitochondria were freshly made for the binding affinity study.\nFor the competitive binding assay, the isolated mitochondria were pre-incubated with triphenylphosphonium (TPP) or PEG2k-F7 at 37° C. for 1 h, and then washed with PBS for three times. The pretreated mitochondria were incubated with Rh123 at 37° C. for additional 1 h. After washing with PBS for three times, the mitochondria were analyzed by the microplate reader."}, "HeLa cells": {"test_system": "HeLa cells", "experiment": "Mitochondrial membrane potential measurement (JC-1 dye, flow cytometry)", "format": "cell-based, human", "conditions": "50 μM, 1 h, compared to untreated cells (FIG. 6B)", "description": "Mitochondrial Membrane Potential Measurement. The mitochondrial membrane potential was determined using the JC-1 dye by flow cytometry. Briefly, the HeLa cells were seeded at a density of 1×10^5 cells/well in 24-well plates for 24 h. The cells were incubated with the same molar concentration (50 μM) of the PEG2k-F7, TPP and CCCP (mitochondrial uncoupler) in the serum-free medium for 1 h. Then, the cells were washed three times by the iced-cold medium to remove the uninternalized materials. The cells were incubated with the JC-1 dye (Biotium) for 15 min at 37° C., followed by the flow cytometry."}, "[2]": {"experiment": "Body weight and white blood cell counts of treated 4T1 tumor mice", "format": "in vivo, BALB/c mice", "description": "Animal experiments. The subcutaneous (s.c.) syngeneic 4T1 tumor mouse model was established by s.c. implantation of 5×10^6 4T1 cells in the right rear flank of the BALB/c mice. The tumor was measured by a caliper.\nTo study anticancer activity, the saline, VES, PEG2k-F7, VES-loaded PEG2k-PE micelles and VES-loaded PEG2k-F7 micelles were injected intravenously via the tail at a dose of 20 mg/kg every three days for 3 injections. The tumor size and mouse body weight were monitored every other day. The mice were sacrificed and the blood, major organs and tumors were collected. White blood cells were counted by using a hemocytometry by microscopy."}, "[3]": {"test_system": "isolated mitochondria (HeLa cells)", "experiment": "Binding affinity study with isolated mitochondria", "set-up": "species or system human", "conditions": "37° C., 1 h, fluorescence", "description": "as §1\nThe isolated mitochondria were incubated with the FITC-PEG2k, FITC-PE, FITC-F7, FITC-PEG2k-F7, Rh123, and MITOVIEW™ Green at 37° C. for 1 h, respectively. Then, the mitochondria were washed with PBS for three times and suspended in 200 μL PBS. The mitochondria suspension was observed on a Nikon Ti Eclipse fluorescence microscope. The fluorescence intensity was recorded on the microplate reader."}, "mitochondria": {"test_system": "mitochondria", "experiment": "Quantification of mitochondria-accumulated dyes in living cells", "format": "cell-based", "description": "For quantification of the mitochondria-accumulated dyes in living cells, 2×10^7 cells were incubated with the FITC-PE, FITC-F7, or Rh123 at 37° C. for 1 h. After washing with PBS, the (total) cellular fluorescence intensity was measured by microplate reader. Then, the cells were lysed and the mitochondria were separated from other cell fragments by Mitochondria Isolation Kit for Cultured Cells (Option A). The fluorescence intensities of the isolated mitochondria and other cell fragments were measured by the microplate reader. To study the influence of mitochondrial membrane potential on mitochondrial targeting, the cells were pre-incubated with the uncoupler, CCCP (50 μM), for 15 min, and then incubated with the FITC-F7 or Rh123 for 1 h."}}, "data": [{"compound": "c1ccc(P(c2ccccc2)c2ccccc2)cc1", "note": "[TPP, triphenylphosphonium]", "values": [{"measurement": "decrease of Rh123 binding affinity by pre-incubation", "setting": "[1]", "result": "about 50%"}, {"measurement": "effect on mitochondrial membrane potential", "setting": "HeLa cells", "result": "dramatically depolarized mitochondria"}]}, {"compound": "Cc1c(C)c2c(c(C)c1OC(=O)CCC(=O)O)CC[C@@](C)(CCC[C@H](C)CCC[C@H](C)CCCC(C)C)O2", "note": "[VES, d-Vitamin E succinate]", "values": [{"measurement": "white blood cell (WBC) counts", "setting": "[2]; FIG. 13", "result": "relatively similar to one another"}, {"measurement": "body weight of mice", "setting": "[2]; over 14 days (FIG. 10)", "result": "stayed relatively the same"}]}, {"compound": "fluorescein isothiocyanate [FITC]", "values": [{"measurement": "binding affinity with isolated mitochondria", "setting": "[3]", "result": "did not significantly bind"}]}, {"compound": "rhodamine 123 [Rh123]", "values": [{"measurement": "effect of CCCP-induced membrane depolarization on mitochondrial accumulation", "setting": "mitochondria; CCCP 50 μM pre-incubation 15 min, then dye 1 h", "result": "substantially reduced"}, {"measurement": "mitochondrial accumulation", "setting": "mitochondria; mitochondria isolated from treated cells, 37° C., 1 h", "result": 17.5, "unit": "%"}]}]}
